Reference: article PMC5618426, “APETx4, a Novel Sea Anemone Toxin and a Modulator of the Cancer-Relevant Potassium Channel KV10.1” (Marine Drugs, 2017)
Positions of bridges follow the written chain, without caps; N, C: chain ends. No end group written: not given here.

Experiments:
NIH-3T3 = assay: proliferation (IncuCyte confluency); type: cell-based, mouse; conditions: cell confluency (%) over time, n = 4 wells
Method: (§1) The cell proliferation was quantified in terms of cell confluency (%) over time; data points were collected every hour. […] LNCaP, it is presumed that the observed effect cannot only be attributed to KV10.1 inhibition (Figure S5).
(§2) Cell lines SH-SY5Y (ACC 209), LNCaP (ACC 256) and NIH-3T3 (ACC 59) were purchased from DSMZ (Germany). MDA-MB-435S (HTB 129) and hTERT RPE-1 (CRL 4000) were obtained from ATCC (USA). Cell lines were cultured in their recommended media supplemented with 10% or 15% FCS (PAA laboratories, Cölbe, Germany) at 37 °C in humidified 5% CO2 atmosphere. All media were purchased from ThermoFisher Scientific (Waltham, MA, USA).
(§3) Cell proliferation, cytotoxicity and apoptosis were assessed in a 96-well microtiter plate by live-cell imaging using an IncuCyte Zoom System (Essen BioScience, Welwyn Garden City, UK). Cell proliferation was monitored in terms of cell confluency (%). Cell cytotoxicity was assessed by the CellTox Green Dye assay (Promega, Madison, WI, USA). The IncuCyte Caspase-3/7 apoptosis assay (Essen BioScience, UK) was used to evaluate the effect of APETx4 on the apoptotic pathway.
Live-cell imaging data were collected from the IncuCyte Zoom software and analyzed using GraphPad Prism 6 software. Proliferation was measured as Phase Object Confluence (%), cytotoxicity and apoptosis were measured as Green Object Count (1/mm²). Data points were collected every hour. […]

SH-SY5Y [1] = assay: proliferation (IncuCyte confluency); type: cell-based, human; conditions: cell confluency (%) over time, n = 4 wells
Method: as §1, §2, §3
(§4) Live-cell imaging data were collected from the IncuCyte Zoom software and analyzed using GraphPad Prism 6 software. Proliferation was measured as Phase Object Confluence (%), cytotoxicity and apoptosis were measured as Green Object Count (1/mm²). Data points were collected every hour. In order to improve the clarity of the graphs, only the data points for every 5 h are shown. All data are represented as mean ± S.E.M of n = 4 different wells.

MDA-MB-435S [2] = assay: proliferation (IncuCyte confluency); type: cell-based, human; conditions: cell confluency (%) over time, n = 4 wells
Method: as §1, §2, §3, §4

hTERT RPE-1 [3] = assay: proliferation (IncuCyte confluency); type: cell-based, human; conditions: cell confluency (%) over time, n = 4 wells
Method: as §1, §2, §3, §4

LNCaP [4] = assay: proliferation (IncuCyte confluency); type: cell-based, human; conditions: cell confluency (%) over time, n = 4 wells
Method: as §1, §2, §3, §4

SH-SY5Y [5] = type: cell-based, human
From the text: (§5) The proapoptotic activity of APETx4 was visualized and quantified by the addition of the IncuCyte Caspase-3/7 Reagent. This reagent is an inert and non-fluorescent substrate, which is cleaved by activated caspase-3/7 during early apoptosis. The cleavage of the reagent releases a DNA-binding green fluorescent dye. […] In Figure 7 an overview is given for the caspase assays of all the tested cell lines.
(§6) Figure 7 Investigation of the proapoptotic effect of APETx4 on various cell lines using a Caspase-3/7 Reagent. The amount of cells in early apoptosis was plotted as Green Object Count (1/mm²) versus time (hours). The data points represented as red triangles were obtained from apoptosis experiments with cells incubated without APETx4, the green squares represent experiments with 20 µM APETx4 and the blue circles were obtained from experiments with 50 µM APETx4.
as §2, §3, §4

MDA-MB-435S [6] = type: cell-based, human
From the text: as §5, §6, §2, §3, §4

hTERT RPE-1 [7] = type: cell-based, human
From the text: as §5, §6, §2, §3, §4

LNCaP [8] = type: cell-based, human
From the text: as §5, §6, §2, §3, §4

[9] = 50 µM APETx4, 0 h, 24 h and 48 h
[10] = green object count (1/mm²) versus incubation time
[11] = 50 µM APETx4, immediately after toxin addition

GTTCYCGKTIGIYWFGKYSCPTNRGYTGSCPYFLGICCYPVD (disulfide 4-37, 6-30, 20-38) [APETx4]
antiproliferative effect (NIH-3T3): without affecting the proliferation of healthy fibroblast cells | antiproliferative effect (SH-SY5Y [1]): concentration-dependent antiproliferative effect | antiproliferative effect (MDA-MB-435S [2]): concentration-dependent antiproliferative effect | antiproliferative effect (hTERT RPE-1 [3]): concentration-dependent antiproliferative effect | antiproliferative effect (LNCaP [4]): concentration-dependent antiproliferative effect | viability in cell images (SH-SY5Y [5]; [9]): immediate effects were not clearly observed | time course of green fluorescent cells (early apoptosis) (SH-SY5Y [5]; [10]): gradual increase in green fluorescent cells | viability in cell images (MDA-MB-435S [6]; [9]): immediate effects were not clearly observed | time course of green fluorescent cells (early apoptosis) (MDA-MB-435S [6]; [10]): gradual increase in green fluorescent cells | viability in cell images (hTERT RPE-1 [7]; [11]): became less viable | response time in caspase assay (hTERT RPE-1 [7]; very rapid response): < 60 min | viability in cell images (LNCaP [8]; [11]): became less viable | response time in caspase assay (LNCaP [8]; very rapid response): < 60 min
